Drawing on ChEMBL document CHEMBL1145633, “Inhibitors of the tyrosine kinase EphB4. Part 1: Structure-based design and optimization of a series of 2,4-bis-anilinopyrimidines” (Bioorg Med Chem Lett, 2008), this text covers IC50 for 24 molecules.

In general, IC50 refers to the concentration needed to halve the response being measured.

This assay deals with T1, Ephrin type-B receptor 4 (Homo sapiens, UniProt P54760).
T1 sequence (P54760 whole entry): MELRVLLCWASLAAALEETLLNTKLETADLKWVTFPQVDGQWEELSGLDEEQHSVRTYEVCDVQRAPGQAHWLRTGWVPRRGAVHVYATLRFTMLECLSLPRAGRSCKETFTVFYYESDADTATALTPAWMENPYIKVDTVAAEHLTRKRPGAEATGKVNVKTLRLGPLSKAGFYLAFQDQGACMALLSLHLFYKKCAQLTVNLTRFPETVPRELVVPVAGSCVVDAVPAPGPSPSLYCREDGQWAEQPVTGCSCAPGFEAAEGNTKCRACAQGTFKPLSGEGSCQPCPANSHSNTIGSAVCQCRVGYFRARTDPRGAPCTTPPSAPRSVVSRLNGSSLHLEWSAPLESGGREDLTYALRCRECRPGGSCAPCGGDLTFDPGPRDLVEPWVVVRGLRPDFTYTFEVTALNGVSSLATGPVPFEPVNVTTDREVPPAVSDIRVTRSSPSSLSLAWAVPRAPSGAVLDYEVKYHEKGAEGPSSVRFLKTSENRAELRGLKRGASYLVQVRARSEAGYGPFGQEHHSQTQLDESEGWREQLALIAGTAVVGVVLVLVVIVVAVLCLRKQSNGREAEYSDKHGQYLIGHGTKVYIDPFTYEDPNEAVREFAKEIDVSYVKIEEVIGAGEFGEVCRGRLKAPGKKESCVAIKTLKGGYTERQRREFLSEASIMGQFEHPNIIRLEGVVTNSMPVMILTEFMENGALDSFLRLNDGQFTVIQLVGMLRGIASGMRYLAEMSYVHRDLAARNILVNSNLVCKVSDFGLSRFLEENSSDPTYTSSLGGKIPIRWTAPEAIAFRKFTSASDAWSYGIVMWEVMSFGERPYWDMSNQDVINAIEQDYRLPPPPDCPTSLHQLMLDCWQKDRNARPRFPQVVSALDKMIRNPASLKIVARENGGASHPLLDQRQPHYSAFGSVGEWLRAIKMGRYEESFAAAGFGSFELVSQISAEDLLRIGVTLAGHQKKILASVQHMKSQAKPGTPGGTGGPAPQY
Description: Inhibition of EphB4.

As to `COc1cc(Nc2cc(Nc3c(Cl)ccc4c3OCO4)ncn2)cc(OC)c1OC`, inhibition was half-maximal at 2.54 µM (IC50).
For `COc1ccccc1Nc1nccc(Nc2c(Cl)ccc3c2OCO3)n1` the value was 3.88 µM.
In the case of `Cc1ccccc1Nc1nccc(Nc2c(Cl)ccc3c2OCO3)n1`, the IC50 stood at 14 µM.
For `N#Cc1cccc(Nc2nccc(Nc3c(Cl)ccc4c3OCO4)n2)c1` the value was 0.55 µM.
For `Clc1ccc2c(c1Nc1ccnc(Nc3ccc(N4CCOCC4)cc3)n1)OCO2` the value was 1 µM; for `Clc1ccc(Nc2nccc(Nc3c(Cl)ccc4c3OCO4)n2)cc1`, 6 µM.
For `Clc1ccccc1Nc1nccc(Nc2c(Cl)ccc3c2OCO3)n1` the value was 11.3 µM; for `NS(=O)(=O)c1ccc(Nc2nccc(Nc3c(Cl)ccc4c3OCO4)n2)cc1`, 0.3 µM.
As for `Fc1cccc(Nc2nccc(Nc3c(Cl)ccc4c3OCO4)n2)c1`, the IC50 stood at 1.15 µM.
For `COc1ccc(Nc2nccc(Nc3c(Cl)ccc4c3OCO4)n2)cc1` the value was 1.94 µM; for `Clc1ccc2c(c1Nc1ccnc(Nc3ccccc3N3CCOCC3)n1)OCO2`, 7.85 µM.
For `CS(=O)(=O)c1ccc(Nc2nccc(Nc3c(Cl)ccc4c3OCO4)n2)cc1` the value was 0.63 µM; for `N#Cc1ccc(Nc2nccc(Nc3c(Cl)ccc4c3OCO4)n2)cc1`, 1.25 µM; for `Clc1cccc(Nc2nccc(Nc3c(Cl)ccc4c3OCO4)n2)c1`, 1.33 µM.
For the molecule `Fc1ccc(Nc2nccc(Nc3c(Cl)ccc4c3OCO4)n2)cc1`, half-maximal inhibition (IC50) required 2.3 µM.
The same measure for `COc1cccc(Nc2nccc(Nc3c(Cl)ccc4c3OCO4)n2)c1`: 0.64 µM; for `Fc1ccccc1Nc1nccc(Nc2c(Cl)ccc3c2OCO3)n1`: 5 µM.
The same measure for `Clc1ccc2c(c1Nc1ccnc(Nc3ccccc3)n1)OCO2`: 1.55 µM.
Consider `NS(=O)(=O)c1ccccc1Nc1nccc(Nc2c(Cl)ccc3c2OCO3)n1`, for which 35.5 µM corresponded to half-maximal inhibition (IC50).
The same measure for `COc1cc(Nc2ncnc(Nc3c(Cl)ccc4c3OCO4)n2)cc(OC)c1OC`: 2.96 µM; for `CS(=O)(=O)c1ccccc1Nc1nccc(Nc2c(Cl)ccc3c2OCO3)n1`: 41 µM.
For `Cc1cccc(Nc2nccc(Nc3c(Cl)ccc4c3OCO4)n2)c1` the value was 0.46 µM; for `Cc1ccc(Nc2nccc(Nc3c(Cl)ccc4c3OCO4)n2)cc1`, 1.6 µM; for `N#Cc1ccccc1Nc1nccc(Nc2c(Cl)ccc3c2OCO3)n1`, 20.5 µM.
